Assay results published in patent US12521393B2, “Cytotoxicity targeting chimeras for CCR2-expressing cells” (GLAXOSMITHKLINE INTELLECTUAL PROPERTY DEVELOPMENT LIMITED, priority 2021, dated 2026).
Where a name gives a salt, the structure may show the parent alone.

Test system: endogenous target monocytes in human PBMC
Assay: PBMC ex vivo monocyte depletion flow cytometry assay (Example 200)
Assay type: cell-based
Settings: with anti-cotinine antibody (SEQ ID NO: 11/12), 18-24 hours, EC50 in molar, read-out: Ex Vivo Depletion Assay pEC50 (converted)
In short: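 Monocyte depletion is reported as pEC50, averaged or given individually across runs, and read by flow cytometry staining CD45, CD14 and CD4 with a viability dye. Compounds, diluted four-fold over 11 points from 1 mM DMSO stocks, were combined with 30 μg/mL Fc-enhanced anti-cotinine antibody and human PBMC, then incubated 18-24 h at 37° C.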

Compound	EC50 [nM]
CC(C)N(C)[C@@H]1CC[C@H](N2CC[C@H](Nc3ncnc4ccc(C(F)(F)F)cc34)C2=O)[C@H](NC(=O)C23CCC(NC(=O)CCOCCOCCOCCNC(=O)[C@H]4CC(=O)N(C)[C@@H]4c4cccnc4)(CC2)CC3)C1 [Example 25, (2S,3S)-N-(2-(2-(2-(3-((4-(((1R,2S,5R)-5-(Isopropyl(methyl)amino)-2-((S)-2-oxo-3-((6-(trifluoromethyl)quinazolin-4-yl)amino)pyrrolidin-1-yl)cyclohexyl)carbamoyl)bicyclo[2.2.2]octan-1-yl)amino)-3-oxopropoxy)ethoxy)ethoxy)ethyl)-1-methyl-5-oxo-2-(pyridin-3-yl)pyrrolidine-3-carboxamide]	2
CC(C)N(C)[C@@H]1CC[C@H](N2CC[C@H](Nc3ncnc4ccc(C(F)(F)F)cc34)C2=O)[C@H](NC(=O)CCCN2CCC3(CCC(C(=O)NCCNC(=O)[C@H]4CC(=O)N(C)[C@@H]4c4cccnc4)CC3)CC2)C1 [Example 183, 3-(4-(((1R,2S,5R)-5-(Isopropyl(methyl)amino)-2-((S)-2-oxo-3-((6-(trifluoromethyl)quinazolin-4-yl)amino)pyrrolidin-1-yl)cyclohexyl)amino)-4-oxobutyl)-N-(2-((2S,3S)-1-methyl-5-oxo-2-(pyridin-3-yl)pyrrolidine-3-carboxamido)ethyl)-3-azaspiro[5.5]undecane-9-carboxamide, 3 Formic acid salt]	0.251
CC(C)N(C)[C@@H]1CC[C@H](N2CC[C@H](Nc3ncnc4ccc(C(F)(F)F)cc34)C2=O)[C@H](NC(=O)C2CCC(N3CC(C(=O)NCCOCCOCCNC(=O)[C@H]4CC(=O)N(C)[C@@H]4c4cccnc4)C3)CC2)C1 (stereo partly drawn) [Example 131, (2S,3S)-N-(2-(2-(2-(1-(4-(((1R,2S,5R)-5-(Isopropyl(methyl)amino)-2-((S)-2-oxo-3-((6-(trifluoromethyl)quinazolin-4-yl)amino)pyrrolidin-1-yl)cyclohexyl)carbamoyl)cyclohexyl)azetidine-3-carboxamido)ethoxy)ethoxy)ethyl)-1-methyl-5-oxo-2-(pyridin-3-yl)pyrrolidine-3-carboxamide]	0.501
CC(C)N(C)[C@@H]1CC[C@H](N2CC[C@H](Nc3ncnc4ccc(C(F)(F)F)cc34)C2=O)[C@H](NC(=O)C2CCC3(CC2)CCN(CCOCCOCCNC(=O)[C@H]2CC(=O)N(C)[C@@H]2c2cccnc2)CC3)C1 [Example 93, N-((1R,2S,5R)-5-(Isopropyl(methyl)amino)-2-((S)-2-oxo-3-((6-(trifluoromethyl)quinazolin-4-yl)amino)pyrrolidin-1-yl)cyclohexyl)-3-(2-(2-(2-((2S,3S)-1-methyl-5-oxo-2-(pyridin-3-yl)pyrrolidine-3-carboxamido)ethoxy)ethoxy)ethyl)-3-azaspiro [5.5]undecane-9-carboxamide]	126
CC(C)N(C)[C@@H]1CC[C@H](N2CC[C@H](Nc3ncnc4ccc(C(F)(F)F)cc34)C2=O)[C@H](NC(=O)[C@H]2CC[C@H](NC(=O)CCO[C@H]3CC[C@@H](OCCNC(=O)[C@H]4CC(=O)N(C)[C@@H]4c4cccnc4)CC3)CC2)C1 [Example 114, (2S,3S)-N-(2-(((1S,4R)-4-(3-(((1R,4R)-4-(((1R,2S,5R)-5-(Isopropyl(methyl)amino)-2-((S)-2-oxo-3-((6-(trifluoromethyl)quinazolin-4-yl)amino)pyrrolidin-1-yl)cyclohexyl)carbamoyl)cyclohexyl)amino)-3-oxopropoxy)cyclohexyl)oxy)ethyl)-1-methyl-5-oxo-2-(pyridin-3-yl)pyrrolidine-3-carboxamide]	2.51
CC(C)N(C)[C@@H]1CC[C@H](N2CC[C@H](Nc3ncnc4ccc(C(F)(F)F)cc34)C2=O)[C@H](NC(=O)CCCCCCCCNCCOCCOCCOCCOCCNC(=O)[C@H]2CC(=O)N(C)[C@@H]2c2cccnc2)C1 [Example 195, (2S,3S)-N-(24-(((1R,2S,5R)-5-(Isopropyl(methyl)amino)-2-((S)-2-oxo-3-((6-(trifluoromethyl)quinazolin-4-yl)amino)pyrrolidin-1-yl)cyclohexyl)amino)-24-oxo-3,6,9,12-tetraoxa-15-azatetracosyl)-1-methyl-5-oxo-2-(pyridin-3-yl)pyrrolidine-3-carboxamide, 3Trifluoroacetic acid salt]	0.316
